Results as given in patent US20240373851A1, “PEST CONTROL COMPOSITION AND PEST CONTROL METHOD” (SUMITOMO CHEMICAL COMPANY, LIMITED, priority 2021, published 2024).

Experiments:
Format in all cases: in vivo
[1] = tested on: German cockroaches (Blattella germanica); experiment: Test Example 3: control test against German cockroaches, spray in chamber; details: adult German cockroaches; 1.5 mL sprayed; concentration [%]: broflanilide 0.02, imiprothrin 0.01, cyfluthrin 0.0016, alone or mixed; 420 minutes after spraying
From the text: Next, the usefulness of the inventive composition for controlling pests will be indicated by Test Examples.
(hereinafter referred to as expected value A)
(hereinafter referred to as expected value B)
In a plastic cup (diameter: 12.4 cm, height: 10.2 cm) lined with a filter paper, ten adult German cockroaches (Blattella germanica) (five males and five females each) were released, and the plastic cup was placed in the center of the bottom of a box-shaped chamber (46 cm×46 cm×70 cm in height). From the height of 60 cm, 1.5 mL of each of formulations prepared by dissolving a single agent of any one of broflanilide, imiprothrin and cyfluthrin, or a mixed agent of two or more thereof in a mixture of isopropyl alcohol and Isopar M at a mixing ratio of 1:9 was sprayed under a spray pressure of 0.041 MPa. After a lapse of 420 minutes from spraying, the number of dead and moribund individuals was examined, and moribund and mortal rates (%) were determined by the above equation 3. The test was performed through two replicates. Dead individuals are completely immobile individuals, and moribund individuals are individuals who cannot get up when turned on their backs.

[2] = tested on: German cockroaches (Blattella germanica); experiment: Test Example 10: control test against German cockroaches, spray in chamber; details: adult German cockroaches; 1.5 mL sprayed; concentration [%]: nicofluprole 0.01, imiprothrin 0.01, permethrin 0.05, alone or mixed; 60 minutes after spraying
Protocol: (§1) Next, the usefulness of the inventive composition for controlling pests will be indicated by Test Examples. In general, the control effect to be expected when treated with a mixture obtained by mixing given two or three types of active ingredient compounds is determined by the Colby's calculation equation represented by the following [Equation 1] and [Equation 2].
(§2) [formula] • P: moribund and mortal rates (%) when treated with an active ingredient compound X in the concentration of m [ppm] • Q: moribund and mortal rates (%) when treated with an active ingredient compound Y in the concentration of n [ppm] • EA: moribund and mortal rates (%) when treated with an active ingredient compound X in the concentration of m [ppm] and an active ingredient compound Y in the concentration of n [ppm] (hereinafter referred to as expected value A) […]
(§3) Regarding the synergistic effect of three types of the active ingredient compounds, in case where the moribund and mortal rates (%) when actually treated with a mixture obtained by mixing three types of the active ingredient compounds exceed the expected value A calculated by using the moribund and mortal rates (%) when actually treated with a mixture obtained by mixing two types of the active ingredient compounds among three types thereof, and the moribund and mortal rates (%) calculated when actually treated the remaining one type of the active ingredient compound, or the expected value B (%) calculated from the moribund and mortal rates (%) when actually treated with each of three types of the active ingredient compounds alone, it was determined that the synergistic effect exists. […]

[3] = tested on: German cockroaches (Blattella germanica); experiment: Test Example 7: control test against German cockroaches, spray in chamber; details: adult German cockroaches; 1.5 mL sprayed; concentration [%]: isocycloseram 0.05, imiprothrin 0.01, cypermethrin 0.01, alone or mixed; 120 minutes after spraying
Protocol: as §1, §2, §3

With C#CCN1CC(=O)N(COC(=O)[C@@H]2C(C=C(C)C)C2(C)C)C1=O (mixture of isomers) [Imiprothrin, imiprothrin] the “Moribund and mortal rates [%] after 420 minutes” value [1] was 15%, the “Moribund and mortal rates [%] after 60 minutes” value [2] was 40% and the “Moribund and mortal rates [%] after 120 minutes” value [3] was 5%.
